Test results: patent publication US20230233569A1 (Revolution Medicines, Inc., priority 2020, published 2023)
pIC50: −log10 of the molar value. Where “and” joins values, the source holds several entries; their conditions need not be identical. Equal entries are not always repeated. Where two headings read alike, the source gives them in different places.

Assays:
Assay in all cases: Disruption of BRAF RBD interaction with Ras (FRET / MOA assay, with Cyclophilin A)
Assay type in all cases: biochemical
[1] = biological target: KRAS G12D (Homo sapiens, UniProt P01116+P62937, G12D); conditions: read-out: KRAS G12D FRET data, IC50
Chain of KRAS G12D (P01116 1-169 isoform P01116-2 G12D limits assumed): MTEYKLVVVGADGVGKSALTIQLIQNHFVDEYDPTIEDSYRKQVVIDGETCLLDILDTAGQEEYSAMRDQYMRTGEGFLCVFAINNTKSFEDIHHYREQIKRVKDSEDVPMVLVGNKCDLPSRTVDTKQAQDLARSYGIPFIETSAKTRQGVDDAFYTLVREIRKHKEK
Chain of KRAS G12D (P62937 whole entry): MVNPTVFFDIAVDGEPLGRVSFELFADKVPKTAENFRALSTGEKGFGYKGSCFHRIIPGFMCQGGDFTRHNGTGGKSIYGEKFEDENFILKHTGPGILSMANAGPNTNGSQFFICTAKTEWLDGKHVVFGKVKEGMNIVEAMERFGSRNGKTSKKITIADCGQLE
Excerpt: (§1) This protocol may also be executed substituting other Ras proteins or nucleotides.
(§2) The purpose of this biochemical assay was to measure the ability of test compounds to facilitate ternary complex formation between a nucleotide-loaded K-Ras isoform and Cyclophilin A; the resulting ternary complex disrupts binding to a BRAF^RBD construct, inhibiting K-Ras signaling through a RAF effector. Data is reported as IC50 values.
(§3) Compound was present in plate wells as a 10-point 3-fold dilution series starting at a final concentration of 30 μM. After incubation at 25° C. for 3 hours, a mixture of Anti-His Eu-W1024 and anti-GST allophycocyanin was then added to assay sample wells at final concentrations of 10 nM and 50 nM, respectively, and the reaction incubated for an additional 1.5 hours. […] Compounds that facilitate disruption of a K-Ras:RAF complex were identified as those eliciting a decrease in the TR-FRET ratio relative to DMSO control wells.
as §2, with “BRAF^RBDD” for “BRAF^RBD”

[2] = biological target: KRAS G12V (Homo sapiens, UniProt P01116+P62937, G12V); conditions: KRAS G12V; read-out: KRAS G12V FRET data IC50
Chain of KRAS G12V (P01116 1-169 isoform P01116-2 G12V limits assumed): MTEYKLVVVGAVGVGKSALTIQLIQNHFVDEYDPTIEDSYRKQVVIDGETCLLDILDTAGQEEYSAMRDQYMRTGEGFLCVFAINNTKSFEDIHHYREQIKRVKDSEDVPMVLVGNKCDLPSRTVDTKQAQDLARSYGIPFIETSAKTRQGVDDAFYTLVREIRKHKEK
Chain of KRAS G12V (P62937 whole entry): as the sequence (P62937 whole entry) above
Excerpt: as §1, §2, §3
as §2, with “BRAF^RBDD” for “BRAF^RBD”

[3] = biological target: KRAS WT (Homo sapiens, UniProt P01116+P62937); conditions: KRAS WT; read-out: KRAS WT FRET data IC50
Chain of KRAS WT (P01116 1-169 isoform P01116-2 limits assumed): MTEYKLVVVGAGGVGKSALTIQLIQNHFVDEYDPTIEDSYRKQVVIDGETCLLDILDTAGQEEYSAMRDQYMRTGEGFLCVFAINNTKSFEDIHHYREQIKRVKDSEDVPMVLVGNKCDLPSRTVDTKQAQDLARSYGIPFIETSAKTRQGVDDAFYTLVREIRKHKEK
Chain of KRAS WT (P62937 whole entry): as the sequence (P62937 whole entry) above
Excerpt: as §1, §2, §3
as §2, with “BRAF^RBDD” for “BRAF^RBD”

[4] = biological target: KRAS G12S (Homo sapiens, UniProt P01116+P62937, G12S); conditions: read-out: KRAS G12S FRET data, IC50
Chain of KRAS G12S (P01116 1-169 isoform P01116-2 G12S limits assumed): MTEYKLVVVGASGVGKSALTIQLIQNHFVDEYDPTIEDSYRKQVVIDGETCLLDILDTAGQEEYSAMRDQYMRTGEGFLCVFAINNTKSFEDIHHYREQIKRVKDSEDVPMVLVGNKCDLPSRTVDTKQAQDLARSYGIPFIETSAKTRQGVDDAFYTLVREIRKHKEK
Chain of KRAS G12S (P62937 whole entry): as the sequence (P62937 whole entry) above
Excerpt: as §1, §2, §3
as §2, with “BRAF^RBDD” for “BRAF^RBD”

[5] = biological target: KRAS G12C (Homo sapiens, UniProt P01116+P62937, G12C); conditions: KRAS G12C; read-out: KRAS G12C FRET data IC50
Chain of KRAS G12C (P01116 1-169 isoform P01116-2 G12C): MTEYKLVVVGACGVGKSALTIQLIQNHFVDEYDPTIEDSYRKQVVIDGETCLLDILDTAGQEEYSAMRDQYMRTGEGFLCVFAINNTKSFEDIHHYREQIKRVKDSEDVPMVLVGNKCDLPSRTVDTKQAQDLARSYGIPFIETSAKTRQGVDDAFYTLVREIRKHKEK
Chain of KRAS G12C (P62937 whole entry): as the sequence (P62937 whole entry) above
Excerpt: as §1, §2, §3
as §2, with “BRAF^RBDD” for “BRAF^RBD”

[6] = biological target: KRAS G13C (Homo sapiens, UniProt P01116+P62937, G13C)
Chain of KRAS G13C (P01116 1-169 isoform P01116-2 G13C): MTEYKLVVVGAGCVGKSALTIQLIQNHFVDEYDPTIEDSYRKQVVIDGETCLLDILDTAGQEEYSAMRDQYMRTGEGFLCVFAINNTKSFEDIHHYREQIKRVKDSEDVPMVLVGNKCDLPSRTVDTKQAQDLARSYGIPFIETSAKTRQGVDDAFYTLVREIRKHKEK
Chain of KRAS G13C (P62937 whole entry): as the sequence (P62937 whole entry) above
Excerpt: as §1, §2, §3
as §2, with “BRAF^RBDD” for “BRAF^RBD”

[7] = KRAS G13C, read-out: KRAS G13C FRET data IC50

Row | SMILES | pIC50 [1] | pIC50 [2] | pIC50 [3] | pIC50 [4] | pIC50 [5] | pIC50 [6, 7] | pIC50 ([6]; read-out: KRAS G13C FRET data, IC50)
1 | C=CC(=O)N1CC[C@H](C(=O)N(C)[C@H](C(=O)N[C@H]2Cc3cc(O)cc(c3)-c3ccc4c(c3)c(c(-c3ccncc3CCOC)n4CC)CC(C)(C)COC(=O)[C@@H]3CCCN(N3)C2=O)C(C)C)C1 (single isomer, unassigned) [Example A048] | 5.00 to 6.00 and < 5.00 | 6.00 to 7.00 and < 5.00 | 5.00 to 6.00 and < 5.00 | 6.00 to 7.00 and < 5.00 | 7.00 to 8.00 and 5.00 to 6.00 | 6.00 to 7.00 and < 5.00 | –
2 | C=CC(=O)N1CC[C@H](C(=O)N(C)[C@H](C(=O)N[C@H]2Cc3cc(O)cc(c3)-c3ccc4c(c3)c(c(-c3ccc(CC(=O)O)cc3)n4CC)CC(C)(C)COC(=O)[C@@H]3CCCN(N3)C2=O)C(C)C)C1 [Example A021] | < 5.00 | < 5.00 | < 5.00 | < 5.00 | 5.00 to 6.00 | < 5.00 | –
3 | C=CC(=O)N1CC[C@H](C(=O)N(C)[C@H](C(=O)N[C@H]2Cc3cc(O)cc(c3)-c3ccc4c(c3)c(c(-c3cccc(CN(C)C)c3)n4CC)CC(C)(C)COC(=O)[C@@H]3CCCN(N3)C2=O)C(C)C)C1 [Example A030] | < 5.00 | 5.00 to 6.00 | 5.00 to 6.00 | 5.00 to 6.00 | 6.00 to 7.00 | 5.00 to 6.00 | –
4 | C=CC(=O)N1CC2(CCN([C@H](C(=O)N[C@H]3Cc4cc(O)cc(c4)-c4ccc5c(c4)c(c(-c4ccccc4CCOC)n5CC)CC(C)(C)COC(=O)[C@@H]4CCCN(N4)C3=O)C(C)C)C2=O)C1 [Example A031] | < 5.00 | 5.00 to 6.00 | 5.00 to 6.00 | 5.00 to 6.00 | 7.00 to 8.00 | 7.00 to 8.00 | –
5 | C=CC(=O)N1CC[C@H](C(=O)N(C)[C@H](C(=O)N[C@H]2Cc3cc(OC(=O)CCC(=O)O)cc(c3)-c3ccc4c(c3)c(c(-c3ccccc3CCOC)n4CC)CC(C)(C)COC(=O)[C@@H]3CCCN(N3)C2=O)C(C)C)C1 [Example A032] | < 5.00 | 5.00 to 6.00 and < 5.00 | 5.00 to 6.00 and < 5.00 | 6.00 to 7.00 and < 5.00 | 7.00 to 8.00 and 5.00 to 6.00 | 5.00 to 6.00 and < 5.00 | –
6 | C=CC(=O)N1CCC(C(=O)N(C)[C@H](C(=O)N[C@H]2Cc3cc(O)cc(c3)-c3ccc4c(c3)c(c(-c3ccccc3CN(C)C)n4CC)CC(C)(C)COC(=O)[C@@H]3CCCN(N3)C2=O)C(C)C)CC1 [Example A033] | < 5.00 | < 5.00 | 5.00 to 6.00 | 5.00 to 6.00 | 6.00 to 7.00 | 6.00 to 7.00 | –
7 | C=CC(=O)N1CC[C@H](C(=O)N(C)[C@H](C(=O)N[C@H]2Cc3cc(O)cc(c3)-c3ccc4c(c3)c(c(-c3ccc(N5CCN(C)CC5)nc3)n4CC)CC(C)(C)COC(=O)[C@@H]3CCCN(N3)C2=O)C(C)C)C1 [Example A089] | < 5.00 | – | – | – | – | – | –
8 | C=CC(=O)N1CC[C@H](C(=O)N(C)[C@H](C(=O)N[C@H]2Cc3cc(O)cc(c3)-c3ccc4c(c3)c(c(-c3cnccc3[C@H](C)OC)n4CC)CC(C)(C)COC(=O)[C@@H]3CCCN(N3)C2=O)C(C)C)C1 [Example A112] | – | – | – | – | > 8.00 | – | –
9 | CCn1c(-c2cccnc2[C@H](C)OC)c2c3cc(ccc31)-c1csc(n1)C[C@H](NC(=O)[C@H](C(C)C)N(C)C(=O)O[C@H]1CCN(C)C1)C(=O)N1CCC[C@H](N1)C(=O)OCC(C)(C)C2 [Example A173] | – | – | – | – | – | – | 5.00 to 6.00

Next, values leading:

Row | pIC50 [1] | pIC50 [2] | pIC50 [3] | pIC50 [4] | pIC50 [5] | pIC50 [6, 7] | pIC50 ([6]; read-out: KRAS G13C FRET data, IC50) | SMILES
10 | 5.00 to 6.00 | – | – | – | – | – | – | C=C(C)C(=O)N1CC(N(C)C(=O)N(C)[C@H](C(=O)N[C@H]2Cc3nc(cs3)-c3ccc4c(c3)c(c(-c3cccnc3[C@H](C)OC)n4CC)CC(C)(C)COC(=O)[C@@H]3CCCN(N3)C2=O)C(C)C)C1 (atropisomer, axis not shown) [Example A360]
11 | < 5.00 | 5.00 to 6.00 | < 5.00 | 5.00 to 6.00 | 6.00 to 7.00 | 5.00 to 6.00 | – | C=CC(=O)N1CC[C@H](C(=O)N(C)[C@H](C(=O)N[C@H]2Cc3cc(O)cc(c3)-c3ccc4c(c3)c(c(-c3ccc(CN(C)C)cc3)n4CC)CC(C)(C)COC(=O)[C@@H]3CCCN(N3)C2=O)C(C)C)C1 [Example A003]
12 | 5.00 to 6.00 | 6.00 to 7.00 | 6.00 to 7.00 | 6.00 to 7.00 | 7.00 to 8.00 | 6.00 to 7.00 | – | C=CC(=O)N1CC[C@H](C(=O)N(C)[C@H](C(=O)N[C@H]2Cc3cc(O)cc(c3)-c3ccc4c(c3)c(c(-c3ccccc3CN(C)C)n4CC)CC(C)(C)COC(=O)[C@@H]3CCCN(N3)C2=O)C(C)C)C1 [Example A005]
13 | < 5.00 | 5.00 to 6.00 | 5.00 to 6.00 | 5.00 to 6.00 | 6.00 to 7.00 | 5.00 to 6.00 | – | C=CC(=O)N1CC[C@H](C(=O)N(C)[C@H](C(=O)N[C@H]2Cc3cc(OC(=O)CN)cc(c3)-c3ccc4c(c3)c(c(-c3ccccc3CCOC)n4CC)CC(C)(C)COC(=O)[C@@H]3CCCN(N3)C2=O)C(C)C)C1 [Example A008]
14 | < 5.00 | < 5.00 | < 5.00 | < 5.00 | 5.00 to 6.00 | < 5.00 | – | C=CC(=O)N1CC[C@H](C(=O)N(C)[C@H](C(=O)N[C@H]2Cc3cc(cc(O)c3F)-c3ccc4c(c3)c(c(-c3ccccc3CCOC)n4CC)CC(C)(C)COC(=O)[C@@H]3CCCN(N3)C2=O)C(C)C)C1 [Example A009]
15 | < 5.00 | 5.00 to 6.00 | 5.00 to 6.00 | 5.00 to 6.00 | 6.00 to 7.00 | 5.00 to 6.00 | – | C=CC(=O)N1CC[C@H](C(=O)N(C)[C@H](C(=O)N[C@H]2Cc3cc(O)cc(c3)-c3ccc4c(c3)c(c(-c3ccc(CN5CCCC5)cc3)n4CC)CC(C)(C)COC(=O)[C@@H]3CCCN(N3)C2=O)C(C)C)C1 [Example A010]
16 | < 5.00 | 5.00 to 6.00 | 5.00 to 6.00 | 5.00 to 6.00 | 6.00 to 7.00 | 6.00 to 7.00 | – | C=CC(=O)N1CCCN(C(=O)N(C)[C@H](C(=O)N[C@H]2Cc3cc(O)cc(c3)-c3ccc4c(c3)c(c(-c3ccccc3CCOC)n4CC)CC(C)(C)COC(=O)[C@@H]3CCCN(N3)C2=O)C(C)C)CC1 [Example A013]
17 | < 5.00 | < 5.00 | 5.00 to 6.00 | 5.00 to 6.00 | 6.00 to 7.00 | 5.00 to 6.00 | – | C=CC(=O)N1CCC(C(=O)N(C)[C@H](C(=O)N[C@H]2Cc3cc(O)cc(c3)-c3ccc4c(c3)c(c(-c3ccccc3CCOC)n4CC)CC(C)(C)COC(=O)[C@@H]3CCCN(N3)C2=O)C(C)C)CC1 [Example A014]
18 | < 5.00 | 5.00 to 6.00 | 5.00 to 6.00 | 5.00 to 6.00 | 6.00 to 7.00 | 6.00 to 7.00 | – | C=CC(=O)N1CCN(C(=O)N(C)[C@H](C(=O)N[C@H]2Cc3cc(O)cc(c3)-c3ccc4c(c3)c(c(-c3ccccc3CCOC)n4CC)CC(C)(C)COC(=O)[C@@H]3CCCN(N3)C2=O)C(C)C)CC1 [Example A018]
19 | < 5.00 | < 5.00 | 5.00 to 6.00 | 5.00 to 6.00 | 6.00 to 7.00 | 5.00 to 6.00 | – | CCn1c(-c2ccccc2CCOC)c2c3cc(ccc31)-c1cc(O)cc(c1)C[C@H](NC(=O)[C@H](C(C)C)N(C)C(=O)C1CCN(C(=O)/C=C/CN(C)C)CC1)C(=O)N1CCC[C@H](N1)C(=O)OCC(C)(C)C2 [Example A019]
20 | 5.00 to 6.00 | 6.00 to 7.00 | 6.00 to 7.00 | 6.00 to 7.00 | 7.00 to 8.00 | 6.00 to 7.00 | – | C=CC(=O)N1CC[C@H](C(=O)N(C)[C@H](C(=O)N[C@H]2Cc3cc(O)cc(c3)-c3ccc4c(c3)c(c(-c3ccccc3[C@@H](C)OC)n4CC)CC(C)(C)COC(=O)[C@@H]3CCCN(N3)C2=O)C(C)C)C1 [Example A029]
